Source: patent US8586530B2, “Modulation of inhibition of ferrochelatase by N-methyl protoporphyrin” (University of South Florida, priority 2006, dated 2013)

Biological target: T1, wild-type, murine ferrochelatase (Mus musculus, UniProt P22315)
T1 construct: In wild-type, murine, mature ferrochelatase, five tryptophan residues; penta-histidine tag (N); made in house; host or cells: E. coli BL21(DE3)
T1 sequence (P22315 54-422): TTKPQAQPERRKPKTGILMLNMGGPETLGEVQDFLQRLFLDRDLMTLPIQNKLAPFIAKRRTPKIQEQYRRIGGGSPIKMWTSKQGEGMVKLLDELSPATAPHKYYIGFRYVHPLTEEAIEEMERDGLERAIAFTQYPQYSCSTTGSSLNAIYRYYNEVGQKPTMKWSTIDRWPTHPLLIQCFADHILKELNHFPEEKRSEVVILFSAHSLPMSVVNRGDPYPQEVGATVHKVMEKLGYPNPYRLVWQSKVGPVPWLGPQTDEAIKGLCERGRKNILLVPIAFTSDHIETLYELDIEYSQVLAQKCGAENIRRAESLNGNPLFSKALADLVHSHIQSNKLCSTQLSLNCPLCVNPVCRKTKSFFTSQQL
Assay: Fluorescence titration of NMPP binding (quenching of intrinsic protein fluorescence)
Settings: 10 mM Tris-acetate pH 8, 0.05% Tween-80, read-out: dissociation constant (Kd) of NMPP
Protocol: Aliquots of NMPP were added to a solution of enzyme in 10 mM Tris-acetate, pH 8 containing 0.05% Tween-80 and incubated on ice for 1 hr. The intrinsic protein fluorescence was monitored at 331 nm (λex=283 nm). The Kd value for NMPP was determined by fitting the data to Equation 3. The enzymes used in each set were: A. wild-type ferrochelatase (40 nM); B. P255R (250 nM); C. P255G (120 nM).
The equilibrium constant for NMPP binding to ferrochelatase could be determined from the change in intrinsic protein fluorescence upon ligand addition. […]
Fluorescence Titration Measurements. Equilibrium fluorescence measurements were made using a Shimadzu RF-5301PC fluorimeter at 23° C. with excitation and emission wavelengths at 283 nm and 331 nm, respectively. The decrease in protein fluorescence, due to NMPP binding, was monitored. […] In a typical titration experiment, aliquots of the NMPP stock were added to the protein solution and, upon incubation on ice for 1 h, the quenching in fluorescence was monitored as described above. […] The observed fluorescence intensity was plotted against NMPP concentration and the dissociation constant of NMPP for ferrochelatase was determined using the least-squares fit of each data set to equation 3 by nonlinear regression: […]

Substance: N-methyl protoporphyrin [NMPP]
- Kd: 9 ± 5 nM
